The record followed here is patent US12173088B2, “Anti-microbial peptides” (priority 2018, dated 2024).

≈ marks a conversion by molar mass, not a printed value. Like-named read-outs stand apart in the source and are kept apart here. Square brackets hold non-standard residues; d marks the D form. Peptide text beside a SMILES is read from it.

One series relates to A. baumannii B26-16. Description: microbe, parasite or virus in culture. To be noted: B26-16; read-out: MIC A. baumannii B26-16. Format: cell-based, Acinetobacter baumannii. Here is the method: (§1) The bacterial strains used include the Gram-positive bacteria methicillin-resistant Staphylococcus aureus USA300, Enterococcus faecium V286-17 (VRE), S. aureus M838-17 (MRSA) and Gram-negative bacteria E. coli E423-17, E416-7 (ampC), P. aeruginosa E411-17, PA01, K. pneumoniae E406-17, ATCC13883, and A. baumannii B26-16. Bacteria were cultivated in tryptic soy broth (TSB) from BD Bioscience.
(§2) The antibacterial activity of peptides was evaluated using a standard broth microdilution protocol with minor modifications (Mishra, et al. (2017) Acta Biomater., 49:316-328). In brief, logarithmic phase bacterial cultures (i.e., optical density at 600 nm≈0.5) were diluted to 0.001 OD and aliquoted 90 μL per well into a 96-well polystyrene microplate. Added 10 μL peptides per well with various concentrations, plates were incubated at 37° C., overnight. Post incubation the plates are read at 630 nm using a ChroMate® Microplate Reader (GMI). […] To study the influence of medium conditions on the antimicrobial activity of peptides against S. aureus USA300 at different pHs (6.8, 7.2, and 8.0), 150 mM sodium chloride (NaCl), 5-10% of human serum, mouse plasma, and peritoneal fluid were included into the assays.

In another series the test system is P. aeruginosa E411-17. Description: microbe, parasite or virus in culture. It counts as cell-based, Pseudomonas aeruginosa. To be noted: E411-17; for MIC: read-out: MIC P. aeruginosa E411-17.
Excerpt: (§3) The bacterial strains used include the Gram-positive strains Staphylococcus aureus USA300 LAC, S. epidermidis 1457, and Bacillus subtilis 168, as well as the Gram-negative isolates Escherichia coli K12 and Acinetobacter baumannii B2367-12. Additional, drug resistance strains include Gram-positive Enterococcus faecium V286-17 (VRE) and S. aureus M838-17 (MRSA) and Gram-negative E. coli E423-17, E. coli E416-17 (ampC), and P. aeruginosa E411-17. Bacteria were cultivated in tryptic soy broth (TSB) (BD Bioscience, MD).
(§4) The antibacterial activity of peptides was evaluated using a standard broth microdilution protocol with minor modifications as described (Mishra, et al. (2012) J. Am. Chem. Soc., 134:12426-12429). In brief, logarithmic phase bacterial cultures (i.e., optical density at 600 nm≈0.5) were diluted to OD600 0.001 and partitioned into a 96-well polystyrene microplate at 90 μL per well. After treatment with 10 μL of peptide solutions two fold diluted to various concentrations, microplates were incubated at 37° C. overnight and read on a ChroMate® 4300 Microplate Reader at 630 nm (GMI, Ramsey, MN). […] To study the influence of medium conditions on the antimicrobial activity of peptides against S. aureus USA300, up to 200 mM sodium chloride (NaCl), 2 mM of calcium chloride, 5-10% of human serum, mouse plasma, fluid, or supernatants of tissue homogenates were included into the assays.
as §1, §2

The next series relates to E. faecium V286-17 (VRE). Put plainly: microbe, parasite or virus in culture. It counts as cell-based, Enterococcus faecium. To be noted: V286-17 (VRE); for MIC: read-out: MIC E. faecium V286-17 (VRE).
Excerpt: as §3, §4, §1, §2

Another series concerns K. pneumoniae E406-17. Description: microbe, parasite or virus in culture. Particulars: E406-17; for MIC: read-out: MIC K. pneumoniae E406-17. Format: cell-based, Klebsiella pneumoniae. How it is done: as §4, §1, §2
The test system of the next series is S. aureus USA300. Description: microbe, parasite or virus in culture. Format: cell-based, Staphylococcus aureus. The method in brief:
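Broth microdilution: log-phase cultures in tryptic soy broth diluted to OD600 0.001, exposed to two-fold diluted peptides at 37° C overnight, growth read at 630 nm. Medium effects on S. aureus USA300 tested with up to 200 mM NaCl, 2 mM CaCl2, 5-10% human serum, mouse plasma, fluids or tissue homogenate supernatants.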

The next series concerns E. coli E423-17. Put plainly: microbe, parasite or virus in culture. To be noted: E423-17; read-out: MIC E. coli E423-17. It counts as cell-based, Escherichia coli.
Excerpt: as §3, §4, §1, §2

A short description of another series: in vivo. Particulars: BALB/c, mouse, plasma, iv, 10 mg/kg. Here is the method: The efficacy of the two peptides was also investigated in non-neutropenic mice against S. aureus USA300. A higher bacterial inoculum at 2×10^8 CFU per mouse was used. […] To evaluate the peptide pharmacokinetics (Chhonker, et al. (2018) Biomed. Chromatogr. e4389), the plasma clearance rate of horine after intravenous injection of 10 mg/kg into BALB/c mice was followed.

A further series can be described thus: Hemolytic assay. Particulars: human, human red blood cells, 2% (v/v). Format: cell-based, human. Summed up:
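HL50 marks the peptide level lysing half of a 2% (v/v) suspension of washed human erythrocytes after 1 h at 37 °C. Released hemoglobin measured at 545 nm, scaled between PBS (0%) and Triton X-100 (2% or 1%; 100%). Selectivity index computed as HL50 over MIC.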

The subject of another series is P. aeruginosa PAO1. It counts as cell-based, Pseudomonas aeruginosa. To be noted: PAO1. Summed up:
(§5)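 Broth microdilution in tryptic soy broth: log-phase cultures (OD600 ≈0.5) diluted to OD600 0.001, given two-fold peptide dilutions, incubated overnight at 37° C. Growth read at 630 nm.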

In the next series the test system is S. aureus M838-17 (MRSA). Description: microbe, parasite or virus in culture. Format: cell-based, Staphylococcus aureus. Particulars: M838-17. Summed up:
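Peptides were serially diluted two-fold against bacteria grown in tryptic soy broth to log phase (OD600 ≈0.5), then seeded at OD600 0.001. Plates were held overnight at 37° C and read at 630 nm. USA300 was also tested at pH 6.8, 7.2 and 8.0, with 150 mM NaCl or 5-10% serum, plasma or peritoneal fluid.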

The subject of a further series is E. coli ampC E416-7. It counts as cell-based, Escherichia coli. To be noted: Table 7.
Excerpt: as §3, §4

The next series concerns E. coli ATCC 25922. It counts as cell-based, Escherichia coli. Particulars: ATCC 25922. The method in brief: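 Peptides, serially diluted two-fold, were incubated overnight at 37 °C with E. coli ATCC 25922 from log-phase cultures adjusted to OD600 0.001. Turbidity at 630 nm served as the read-out in this broth microdilution format.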
In a further series the test system is K. pneumoniae ATCC 13883. It counts as cell-based, Klebsiella pneumoniae. To be noted: ATCC 13883. Summed up:
as §5

Where [1] appears, read: USA300, read-out: MIC S. aureus USA300 (MRSA).

Regarding `CC(C)C[C@@H](NC(=O)[C@@H](Cc1c[nH]c2ccccc12)NC(=O)[C@@H](Cc1c[nH]c2ccccc12)NC(=O)[C@H](N)Cc1c[nH]c2ccccc12)C(=O)N[C@H](CCCNC(=N)N)C(=O)N[C@H](CCCNC(=N)N)C(=O)N[C@H](CCCNC(=N)N)C(=O)N[C@H](Cc1c[nH]c2ccccc12)C(N)=O` [D-horine] (H-[dW][dW][dW][dL][dR][dR][dR][dW]-NH2; N-terminus and C-terminus assumed), the MIC is listed as above 32 µM with A. baumannii B26-16; 32 µM (≈ 43 µg/mL) in the series with P. aeruginosa E411-17; 4 µM (≈ 5.37 µg/mL) in the series with E. faecium V286-17 (VRE); above 32 µM in the series with K. pneumoniae E406-17; 4 µM (≈ 5.37 µg/mL) in the series on S. aureus USA300 (setting [1]); 16 µM (≈ 21.5 µg/mL) in the series on E. coli E423-17. Further, the level at 5 min in “in vivo” stood at 192 µg/mL. In addition, the level at 24 h in the series “in vivo” stood at 0.17 µg/mL.

Regarding `CC(C)C[C@@H](NC(=O)[C@@H](CC(C)C)NC(=O)[C@@H](CCCCN)NC(=O)[C@@H](CC(C)C)NC(=O)CNC(=O)[C@@H](CC(C)C)NC(=O)[C@@H](CO)NC(=O)[C@@H](CC(C)C)NC(=O)[C@@H](CC(C)C)NC(=O)[C@@H](CC(C)C)NC(=O)[C@@H](CO)NC(=O)[C@@H](CC(C)C)NC(=O)CN)C(N)=O` [DFT503d, GLSLLLSLGLKLL] (H-G[dL][dS][dL][dL][dL][dS][dL]G[dL][dK][dL][dL]-NH2; N-terminus and C-terminus assumed), in the series “Hemolytic assay”, the HC50 at 1 h is above 300 µM. Moreover, the MIC in the series with P. aeruginosa E411-17 is above 50 µM; in the series with K. pneumoniae E406-17 it was above 50 µM; in the series on S. aureus M838-17 (MRSA) (read-out: MIC S. aureus M838-17 (MRSA)), 3.1 µM (≈ 4.15 µg/mL); in the series with S. aureus USA300 (1 mM Ca2+), 1.56 µM (≈ 2.09 µg/mL); with S. aureus USA300 (2 mM Ca2+), 1.56 µM (≈ 2.09 µg/mL); in the series on S. aureus USA300 (50 mM NaCl), 1.56 µM (≈ 2.09 µg/mL). Also, the MIC against S. aureus USA300 (100 mM NaCl) was 1.56 µM (≈ 2.09 µg/mL); in the series on S. aureus USA300 (200 mM NaCl) it was 1.56 µM (≈ 2.09 µg/mL); with S. aureus USA300 (No salts added, Table 6, by UV) it was 1.56 µM; against S. aureus USA300 (USA300), 3.1 µM (≈ 4.15 µg/mL); in the series on S. aureus USA300 (USA300, pH 6.8), 3.1 µM (≈ 4.15 µg/mL); with S. aureus USA300 (USA300, pH 7.4), 3.1 µM (≈ 4.15 µg/mL). For the same compound, the MIC in the series on S. aureus USA300 (USA300, pH 8) is 1.6 µM (≈ 2.14 µg/mL); in the series with E. coli E423-17 it was above 50 µM. The “MIC E. faecium V286-17 (VRE)” value against E. faecium V286-17 (VRE) was in the range of 3.1 to 6.25 µM. For the same compound, in the series on P. aeruginosa PAO1, the “MIC PA (P. aeruginosa PAO1)” value is above 25 µM. Further, the “MIC SA (S. aureus USA300)” value against S. aureus USA300 (USA300) is 1.6 µM (≈ 2.14 µg/mL). For the same compound, the “MIC E. coli ampC E416-7” value in the series with E. coli ampC E416-7 was above 50 µM. In addition, in the series on E. coli ATCC 25922, the “MIC EC (E. coli ATCC 25922)” value is above 25 µM.

`CC[C@H](C)[C@H](NC(=O)[C@H](CCCCN)NC(=O)[C@@H](N)CCCNC(=N)N)C(=O)N[C@@H](Cc1c[nH]c2ccccc12)C(=O)N[C@@H](Cc1c[nH]c2ccccc12)C(=O)N[C@@H](Cc1c[nH]c2ccccc12)C(=O)N[C@@H](Cc1c[nH]c2ccccc12)C(=O)N[C@@H](CC(C)C)C(N)=O` [WW295, RKIWWWWL] (H-RKIWWWWL-NH2; N-terminus and C-terminus assumed): the HC50 at 1 h in the series “Hemolytic assay” turned out to be 57 µM. The MIC in the series on A. baumannii B26-16 stood at 8 µM (≈ 10.2 µg/mL); in the series on P. aeruginosa E411-17, 32 µM (≈ 40.7 µg/mL); in the series on E. faecium V286-17 (VRE), 4 µM (≈ 5.09 µg/mL); with K. pneumoniae E406-17 it was 16 µM (≈ 20.4 µg/mL); in the series on S. aureus USA300 (setting [1]), 4 µM (≈ 5.09 µg/mL); in the series with E. coli E423-17, 8 µM (≈ 10.2 µg/mL). The “MIC P. aeruginosa 411-17” value against P. aeruginosa E411-17 was above 50 µM. Besides, in the series with K. pneumoniae ATCC 13883, the “MIC K. pneumoniae ATCC 13883” value was in the range of 3.1 to 6.2 µM. For the same compound, the “MIC K. pneumonia 406-17” value with K. pneumoniae E406-17 was found to be 12.5 µM (≈ 15.9 µg/mL). The “MIC S. aureus M838-17” value in the series with S. aureus M838-17 (MRSA) was 6.2 to 12.5 µM. The “MIC S. aureus USA 300” value in the series with S. aureus USA300 (USA300) fell in the range of 3.1 to 6.2 µM. For the same compound, the “MIC E. coli ATCC 25922” value with E. coli ATCC 25922 was found to be 6.2 µM (≈ 7.89 µg/mL).
